Melting point data for 29 molecules are collected here from US20040087571A1, “Methods of using CCR1 antagonists as immunomodulatory agents” (Pfizer Inc, priority 2002, published 2004).

Structures are written as SMILES.

What is called melting point is the temperature of the solid-liquid transition. In turn, `Cc1ccccc1C[C@H](C[C@H](O)[C@H](Cc1ccccc1)NC(=O)c1cnc2ccccc2n1)C(N)=O` [Example 275, Quinoxaline-2-carboxylic acid (1(S)-benzyl-4(R)-carbamoyl-2(S)-hydroxy-5-o-tolyl-pentyl)-amide] displayed a melting point of 168 to 171 °C.
Next, `O=C(N[C@@H](Cc1ccccc1)[C@@H](O)C[C@@H](Cc1ccccc1)C(=O)NO)c1cnc2ccccc2n1` [Example 276, Quinoxaline-2-carboxylic acid (1(S)-benzyl-2(S)-hydroxy-4(R)-hydroxycarbamoyl-5-phenyl-pentyl)-amide]: 190 to 192 °C; `NC(=O)[C@@H](C[C@H](O)[C@H](Cc1ccccc1)NC(=O)c1cnc2ccccc2n1)C1(O)CCCC1` [Example 277, Quinoxaline-2-carboxylic acid [1(S)-benzyl-4(S)-carbamoyl-2(S)-hydroxy-4-(1-hydroxy-cyclopentyl)-butyl]-amide]: 192 to 195 °C.
Under `CC1CCC(O)([C@H](C[C@H](O)[C@H](Cc2ccccc2)NC(=O)c2cnc3ccccc3n2)C(N)=O)CC1` (stereo partly drawn) [Example 278, Quinoxaline-2-carboxylic acid [1(S)-benzyl-4(S)-carbamoyl-2(S)-hydroxy-4-(1-hydroxy-4-methyl-cyclohexyl)-butyl]-amide] stands 230 to 233 °C; under `NC(=O)[C@@H](Cc1ccc(Cl)c(Cl)c1)C[C@H](O)[C@H](Cc1ccccc1)NC(=O)c1cnc2ccccc2n1` [Example 279, Quinoxaline-2-carboxylic acid [1(S)-benzyl-4(S)-carbamoyl-5-(3,4-dichloro-phenyl)-2(S)-hydroxy-pentyl]-amide], 199 to 201 °C; under `NC(=O)[C@H](Cc1ccccc1F)C[C@H](O)[C@H](Cc1ccccc1)NC(=O)c1cnc2ccccc2n1` [Example 280, Quinoxaline-2-carboxylic acid [1(S)-benzyl-4(R)-carbamoyl-5-(2-fluoro-phenyl)-2(S)-hydroxy-pentyl]-amide], 171 to 173 °C.
Next, `O=C(N[C@@H](Cc1ccccc1)[C@@H](O)C[C@H](C(=O)NO)C1(O)CCCC1)c1cnc2ccccc2n1` [Example 281, Quinoxaline-2-carboxylic acid [1(S)-benzyl-2(S)-hydroxy-4(S)-hydroxycarbamoyl-4-(1-hydroxy-cyclopentyl)-butyl]-amide]: 110 to 112 °C; `CC1CCC(O)([C@H](C[C@H](O)[C@H](Cc2ccccc2)NC(=O)c2cnc3ccccc3n2)C(N)=O)C1` (stereo partly drawn) [Example 282, Quinoxaline-2-carboxylic acid [1(S)-benzyl-4(S)-carbamoyl-2(S)-hydroxy-4-(1-hydroxy-3-methyl-cyclopentyl)-butyl]-amide]: 187 to 188 °C; `CC1CCC(O)([C@H](C[C@H](O)[C@H](Cc2ccccc2)NC(=O)c2cnc3ccccc3n2)C(=O)NO)CC1` (stereo partly drawn) [Example 283, Quinoxaline-2-carboxylic acid [1(S)-benzyl-2(S)-hydroxy-4(S)-hydroxycarbamoyl-4-(1-hydroxy-4-methyl-cyclohexyl)-butyl]-amide]: 114 to 116 °C.
`NC(=O)[C@H](Cc1ccccc1)C[C@H](O)[C@H](Cc1ccccc1)NC(=O)c1cnc2c(F)cccc2c1` [Example 285, 8-Fluoro-quinoline-3-carboxylic acid (1(S)-benzyl-4(R)-carbamoyl-2(S)-hydroxy-5-phenyl-pentyl)-amide] yielded a melting point of 206 to 209 °C.
Next, `NC(=O)[C@H](Cc1ccccc1)C[C@H](O)[C@H](Cc1ccccc1)NC(=O)c1cnc2c(c1)CCC2` [Example 286, 6,7-Dihydro-5H-[1]pyrindine-3-carboxylic acid (1(S)-benzyl-4(R)-carbamoyl-2(S)-hydroxy-5-phenyl-pentyl)-amide]: 182 to 186 °C.
Under `NC(=O)[C@H](Cc1ccccc1)C[C@H](O)[C@H](Cc1ccccc1)NC(=O)c1cnc2ccccc2c1` [Example 287, Quinoline-3-carboxylic acid (1(S)-benzyl-4(R)-carbamoyl-2(S)-hydroxy-5-phenyl-pentyl)-amide] stands 203 to 206 °C.
Under `CC1CC(C)CC(O)([C@H](C[C@H](O)[C@H](Cc2ccccc2)NC(=O)c2cnc3ccccc3n2)C(N)=O)C1` (stereo partly drawn) [Example 288, Quinoxaline-2-carboxylic acid [1(S)-benzyl-4(S)-carbamoyl-2(S)-hydroxy-4-(1-hydroxy-3,5-dimethyl-cyclohexyl)-butyl]-amide] stands 234 to 236 °C; under `NC(=O)[C@@H](C[C@H](O)[C@H](Cc1ccccc1)NC(=O)c1cnc2ccccc2n1)C1(O)CCCCCC1` [Example 290, Quinoxaline-2-carboxylic acid [1(S)-benzyl-4(S)-carbamoyl-2(S)-hydroxy-4-(1-hydroxy-cycloheptyl)-butyl]-amide], 189 to 191 °C.
The molecule `O=C(N[C@@H](Cc1ccccc1)[C@@H](O)C[C@H](C(=O)NO)C1(O)CCCCCC1)c1cnc2ccccc2n1` [Example 291, Quinoxaline-2-carboxylic acid [1(S)-benzyl-2(S)-hydroxy-4(S)-hydroxycarbamoyl-4-(1-hydroxy-cycloheptyl)-butyl]-amide] yielded a melting point of 118 to 119 °C.
Under `NC(=O)[C@H](Cc1cccc(F)c1)C[C@H](O)[C@H](Cc1ccccc1)NC(=O)c1cnc2ccccc2n1` [Example 292, Quinoxaline-2-carboxylic acid [1(S)-benzyl-4(R)-carbamoyl-5-(3-fluoro-phenyl)-2(S)-hydroxy-pentyl]-amide] stands 176 to 179 °C; under `Cc1cccc(C[C@H](C[C@H](O)[C@H](Cc2ccccc2)NC(=O)c2cnc3ccccc3n2)C(N)=O)c1` [Example 293, Quinoxaline-2-carboxylic acid (1(S)-benzyl-4(R)-carbamoyl-2(S)-hydroxy-5-m-tolyl-pentyl)-amide], 178 to 179 °C.
Under `CC(C)CNC(=O)CC[C@H](O)[C@H](Cc1ccccc1)NC(=O)c1cnc2ccccc2n1` [Example 294, Quinoxaline-2-carboxylic acid (1(S)-benzyl-2(S)-hydroxy-4-isobutylcarbamoyl-butyl)-amide] stands 146 to 148 °C.
Next, `NC(=O)[C@@H](C[C@H](O)[C@H](Cc1ccccc1)NC(=O)c1cnc2ccccc2n1)C1(O)C2CC3CC(C2)CC1C3` (stereo partly drawn) [Example 295, Quinoxaline-2-carboxylic acid [1(S)-benzyl-4(S)-carbamoyl-2(S)-hydroxy-4-(2-hydroxy-adamantan-2-yl)-butyl]-amide]: 206 to 207 °C; `NC(=O)[C@@H](C[C@H](O)[C@H](Cc1ccccc1)NC(=O)c1cnc2ccccc2n1)C1(O)C2CCCC1CCC2` (stereo partly drawn) [Example 296, Quinoxaline-2-carboxylic acid [1(S)-benzyl-4(S)-carbamoyl-2(S)-hydroxy-4-(9-hydroxy-bicyclo[3.3.1]non-9-yl)-butyl]-amide]: 268 to 269 °C; `O=C(N[C@@H](Cc1ccccc1)[C@@H](O)C[C@H](C(=O)NO)C1(O)C2CC3CC(C2)CC1C3)c1cnc2ccccc2n1` (stereo partly drawn) [Example 297, Quinoxaline-2-carboxylic acid [1(S)-benzyl-2(S)-hydroxy-4(S)-(2-hydroxy-adamantan-2-yl)-4-hydroxycarbamoyl-butyl]-amide]: 133 to 134 °C.
`O=C(N[C@@H](Cc1ccccc1)[C@@H](O)C[C@H](C(=O)NO)C1(O)C2CCCC1CCC2)c1cnc2ccccc2n1` (stereo partly drawn) [Example 298, Quinoxaline-2-carboxylic acid [1(S)-benzyl-2(S)-hydroxy-4(S)-(9-hydroxy-bicyclo[3.3.1]non-9-yl)-4-hydroxycarbamoyl-butyl]-amide] came in with a melting point of 130 to 132 °C.
Under `COc1cccc(C[C@H](C[C@H](O)[C@H](Cc2ccccc2)NC(=O)c2cnc3ccccc3n2)C(N)=O)c1` [Example 299, Quinoxaline-2-carboxylic acid [1(S)-benzyl-4(R)-carbamoyl-2(S)-hydroxy-5-(3-methoxy-phenyl)-pentyl]-amide] stands 147 to 148 °C.
The molecule `CCCC1CCC(O)([C@H](C[C@H](O)[C@H](Cc2ccccc2)NC(=O)c2cnc3ccccc3n2)C(N)=O)CC1` (stereo partly drawn) [Example 300, Quinoxaline-2-carboxylic acid [1(S)-benzyl-4(S)-carbamoyl-2(S)-hydroxy-4-(1-hydroxy-4-propyl-cyclohexyl)-butyl]-amide] returned a melting point of 227 to 228 °C.
In the case of `CCCC1CCC(O)([C@H](C[C@H](O)[C@H](Cc2ccccc2)NC(=O)c2cnc3ccccc3n2)C(=O)NO)CC1` (stereo partly drawn) [Example 301, Quinoxaline-2-carboxylic acid [1(S)-benzyl-2(S)-hydroxy-4(S)-hydroxycarbamoyl-4-(1-hydroxy-4-propyl-cyclohexyl)-butyl]-amide], the melting point was 115 to 117 °C.
Under `CC1(C)CCC(O)([C@H](C[C@H](O)[C@H](Cc2ccccc2)NC(=O)c2cnc3ccccc3n2)C(N)=O)CC1` [Example 304, Quinoxaline-2-carboxylic acid [1(S)-benzyl-4(S)-carbamoyl-2(S)-hydroxy-4-(1-hydroxy-4,4-dimethyl-cyclohexyl)-butyl]-amide] stands 210 to 211 °C; under `CC1(C)CCC(O)([C@H](C[C@H](O)[C@H](Cc2ccccc2)NC(=O)c2cnc3ccccc3n2)C(=O)NO)CC1` [Example 305, Quinoxaline-2-carboxylic acid [1(S)-benzyl-2(S)-hydroxy-4(S)-hydroxycarbamoyl-4-(1-hydroxy-4,4-dimethyl-cyclohexyl)-butyl]-amide], 118 to 123 °C; under `NC(=O)[C@@H](C[C@H](O)[C@H](Cc1ccccc1)NC(=O)c1cnc2ccccc2n1)C1(O)CCC(F)(F)CC1` [Example 306, Quinoxaline-2-carboxylic acid [1(S)-benzyl-4(S)-carbamoyl-4-(4,4-difluoro-1-hydroxy-cyclohexyl)-2(S)-hydroxy-butyl]-amide], 207.5 to 208.5 °C.
Under `NC(=O)[C@@H](C[C@H](O)[C@H](Cc1ccccc1)NC(=O)c1cnc2ccccc2n1)C1(O)CCC(C(F)(F)F)CC1` (stereo partly drawn) [Example 308, Quinoxaline-2-carboxylic acid [1(S)-benzyl-4(S)-carbamoyl-2(S)-hydroxy-4-(1-hydroxy-4-trifluoromethyl-cyclohexyl)-butyl]-amide] stands 250 to 252 °C.
